Molecular target: T1, WT TREK-2 channels (Homo sapiens, UniProt P57789)
T1 construct: expressed in transfected cells; host or cells: Xenopus laevis oocytes (cRNA injection), excised inside-out patches
T1 sequence (P57789 1-538): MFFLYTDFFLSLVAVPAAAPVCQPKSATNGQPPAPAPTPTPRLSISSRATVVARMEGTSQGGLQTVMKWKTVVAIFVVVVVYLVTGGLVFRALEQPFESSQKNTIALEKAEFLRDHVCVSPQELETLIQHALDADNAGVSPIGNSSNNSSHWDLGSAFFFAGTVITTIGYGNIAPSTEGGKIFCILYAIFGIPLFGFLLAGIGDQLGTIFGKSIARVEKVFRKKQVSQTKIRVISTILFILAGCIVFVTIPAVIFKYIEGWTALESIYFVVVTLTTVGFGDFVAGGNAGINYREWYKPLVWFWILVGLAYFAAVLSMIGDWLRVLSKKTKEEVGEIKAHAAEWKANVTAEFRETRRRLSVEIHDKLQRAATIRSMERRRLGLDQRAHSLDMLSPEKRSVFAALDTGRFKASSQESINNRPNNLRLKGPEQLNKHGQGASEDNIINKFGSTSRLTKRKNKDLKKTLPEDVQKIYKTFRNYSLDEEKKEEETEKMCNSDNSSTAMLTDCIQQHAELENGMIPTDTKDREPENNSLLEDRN
Experiment: Conductance-voltage (G-V) curves from tail currents, V1/2 (intracellular Rb+)
Assay type: cell-based
From the text: The voltage-dependent activation mechanism of the SF gate in K2P channels allows to estimate the electrical work (ΔG = zFΔV1/2) required for pore opening by fitting the G–V curve to a Boltzmann equation. […] The open state represents the situation of both gates being simultaneously open but voltage can only exert force on the SF gate that functions as voltage sensor. […] We further tested whether mutations that open the lower gate (L262A and L264A) would affect the extracellular pH sensitivity. […] We further explored this concept of allosteric coupling using the mutations identified in the functional alanine screen of TM2 and TM4. […]
Conductance-voltage (G–V) relationships were determined from tail currents recorded at a holding potential (VH) of −80 mV after 300 ms depolarizing steps as indicated in the respective figure legend. Data were analyzed with a single Boltzmann fit following Eq. 6:6 GV=Imax/1+e^V−V1/2/slope+Ibase where V1/2 represents the voltage of half-maximal activation, s is the slope factor and Imax and Ibase represent the upper and lower asymptotes. Under appropriate experimental conditions, you can use slope to calculate the valence (charge) of the ion moving across the channel. Slope equals R * T/ z * F where R is the universal gas constant, T is temperature in K, F is the Faraday constant, and z is the valence.

For `CCCCC[N+](CCCCC)(CCCCC)CCCCC` [TPenA, Tetra-pentyl-ammonium chloride], the “effect of TPenA on the G-V curve” value (TREK-2, intracellular Rb+) was “not affected”, the Normalized current (TREK-2 WT + 0.1 mM TPenA, Voltage 0.000) was 0.142 and the Normalized current (TREK-2 WT + 0.1 mM TPenA, Voltage 0.005) was 0.177. For the same compound, the Normalized current (TREK-2 WT + 0.1 mM TPenA, Voltage 0.010) was 0.238, the Normalized current (TREK-2 WT + 0.1 mM TPenA, Voltage 0.015) was 0.307 and the Normalized current (TREK-2 WT + 0.1 mM TPenA, Voltage 0.020) was 0.404. The Normalized current (TREK-2 WT + 0.1 mM TPenA, Voltage 0.025) was 0.485, the Normalized current (TREK-2 WT + 0.1 mM TPenA, Voltage 0.030) was 0.577 and the Normalized current (TREK-2 WT + 0.1 mM TPenA, Voltage 0.035) was 0.667. For the same compound, the Normalized current (TREK-2 WT + 0.1 mM TPenA, Voltage 0.040) was 0.719, the Normalized current (TREK-2 WT + 0.1 mM TPenA, Voltage 0.045) was 0.784 and the Normalized current (TREK-2 WT + 0.1 mM TPenA, Voltage 0.050) was 0.838. It also gave a Normalized current (TREK-2 WT + 0.1 mM TPenA, Voltage 0.055) of 0.851, a Normalized current (TREK-2 WT + 0.1 mM TPenA, Voltage 0.060) of 0.883 and a Normalized current (TREK-2 WT + 0.1 mM TPenA, Voltage 0.065) of 0.906. The Normalized current (TREK-2 WT + 0.1 mM TPenA, Voltage 0.070) was 0.921, the Normalized current (TREK-2 WT + 0.1 mM TPenA, Voltage 0.075) was 0.924 and the Normalized current (TREK-2 WT + 0.1 mM TPenA, Voltage 0.080) was 0.944. The Normalized current (TREK-2 WT + 0.1 mM TPenA, Voltage 0.085) was 0.936, the Normalized current (TREK-2 WT + 0.1 mM TPenA, Voltage 0.090) was 0.949 and the Normalized current (TREK-2 WT + 0.1 mM TPenA, Voltage 0.095) was 0.963. The Normalized current (TREK-2 WT + 0.1 mM TPenA, Voltage 0.100) was 0.966, the Normalized current (TREK-2 WT + 0.1 mM TPenA, Voltage 0.105) was 0.964 and the Normalized current (TREK-2 WT + 0.1 mM TPenA, Voltage 0.110) was 0.962. For the same compound, the Normalized current (TREK-2 WT + 0.1 mM TPenA, Voltage 0.115) was 0.961, the Normalized current (TREK-2 WT + 0.1 mM TPenA, Voltage 0.120) was 0.949 and the Normalized current (TREK-2 WT + 0.1 mM TPenA, Voltage 0.125) was 0.915. The Normalized current (TREK-2 WT + 0.1 mM TPenA, Voltage 0.130) was 0.965, the Normalized current (TREK-2 WT + 0.1 mM TPenA, Voltage 0.135) was 0.962 and the Normalized current (TREK-2 WT + 0.1 mM TPenA, Voltage 0.140) was 0.941. For the same compound, the Normalized current (TREK-2 WT + 0.1 mM TPenA, Voltage 0.145) was 0.970, the Normalized current (TREK-2 WT + 0.1 mM TPenA, Voltage 0.150) was 0.939 and the Normalized current (TREK-2 WT + 0.1 mM TPenA, Voltage -0.005) was 0.115. For the same compound, the Normalized current (TREK-2 WT + 0.1 mM TPenA, Voltage -0.010) was 0.097, the Normalized current (TREK-2 WT + 0.1 mM TPenA, Voltage -0.015) was 0.086 and the Normalized current (TREK-2 WT + 0.1 mM TPenA, Voltage -0.020) was 0.073. The Normalized current (TREK-2 WT + 0.1 mM TPenA, Voltage -0.025) was 0.072, the Normalized current (TREK-2 WT + 0.1 mM TPenA, Voltage -0.030) was 0.066 and the Normalized current (TREK-2 WT + 0.1 mM TPenA, Voltage -0.035) was 0.062. For the same compound, the Normalized current (TREK-2 WT + 0.1 mM TPenA, Voltage -0.040) was 0.062, the Normalized current (TREK-2 WT + 0.1 mM TPenA, Voltage -0.045) was 0.059 and the Normalized current (TREK-2 WT + 0.1 mM TPenA, Voltage -0.050) was 0.058. For the same compound, the Normalized current (TREK-2 WT + 0.1 mM TPenA, Voltage -0.055) was 0.055, the Normalized current (TREK-2 WT + 0.1 mM TPenA, Voltage -0.060) was 0.055 and the Normalized current (TREK-2 WT + 0.1 mM TPenA, Voltage -0.065) was 0.050. The Normalized current (TREK-2 WT + 0.1 mM TPenA, Voltage -0.070) was 0.049, the Normalized current (TREK-2 WT + 0.1 mM TPenA, Voltage -0.075) was 0.050 and the Normalized current (TREK-2 WT + 0.1 mM TPenA, Voltage -0.080) was 0.048. It also gave a Normalized current (TREK-2 WT + 0.1 mM TPenA, Voltage -0.085) of 0.046, a Normalized current (TREK-2 WT + 0.1 mM TPenA, Voltage -0.090) of 0.044 and a Normalized current (TREK-2 WT + 0.1 mM TPenA, Voltage -0.095) of 0.044. The Normalized current (TREK-2 WT + 1 mM TPenA, Voltage 0.000) was 0.164, the Normalized current (TREK-2 WT + 1 mM TPenA, Voltage 0.005) was 0.199 and the Normalized current (TREK-2 WT + 1 mM TPenA, Voltage 0.010) was 0.243. The Normalized current (TREK-2 WT + 1 mM TPenA, Voltage 0.015) was 0.286, the Normalized current (TREK-2 WT + 1 mM TPenA, Voltage 0.020) was 0.362 and the Normalized current (TREK-2 WT + 1 mM TPenA, Voltage 0.025) was 0.446. The Normalized current (TREK-2 WT + 1 mM TPenA, Voltage 0.030) was 0.519, the Normalized current (TREK-2 WT + 1 mM TPenA, Voltage 0.035) was 0.589 and the Normalized current (TREK-2 WT + 1 mM TPenA, Voltage 0.040) was 0.634. It also gave a Normalized current (TREK-2 WT + 1 mM TPenA, Voltage 0.045) of 0.688, a Normalized current (TREK-2 WT + 1 mM TPenA, Voltage 0.050) of 0.702 and a Normalized current (TREK-2 WT + 1 mM TPenA, Voltage 0.055) of 0.751. For the same compound, the Normalized current (TREK-2 WT + 1 mM TPenA, Voltage 0.060) was 0.768, the Normalized current (TREK-2 WT + 1 mM TPenA, Voltage 0.065) was 0.790 and the Normalized current (TREK-2 WT + 1 mM TPenA, Voltage 0.070) was 0.818. For the same compound, the Normalized current (TREK-2 WT + 1 mM TPenA, Voltage 0.075) was 0.805, the Normalized current (TREK-2 WT + 1 mM TPenA, Voltage 0.080) was 0.838 and the Normalized current (TREK-2 WT + 1 mM TPenA, Voltage 0.085) was 0.838. The Normalized current (TREK-2 WT + 1 mM TPenA, Voltage 0.090) was 0.887, the Normalized current (TREK-2 WT + 1 mM TPenA, Voltage 0.095) was 0.885 and the Normalized current (TREK-2 WT + 1 mM TPenA, Voltage 0.100) was 0.885. The Normalized current (TREK-2 WT + 1 mM TPenA, Voltage 0.105) was 0.883, the Normalized current (TREK-2 WT + 1 mM TPenA, Voltage 0.110) was 0.905 and the Normalized current (TREK-2 WT + 1 mM TPenA, Voltage 0.115) was 0.909. It also gave a Normalized current (TREK-2 WT + 1 mM TPenA, Voltage 0.120) of 0.967, a Normalized current (TREK-2 WT + 1 mM TPenA, Voltage 0.125) of 0.928 and a Normalized current (TREK-2 WT + 1 mM TPenA, Voltage 0.130) of 0.900. The Normalized current (TREK-2 WT + 1 mM TPenA, Voltage 0.135) was 0.929, the Normalized current (TREK-2 WT + 1 mM TPenA, Voltage 0.140) was 0.939 and the Normalized current (TREK-2 WT + 1 mM TPenA, Voltage 0.145) was 0.922. The Normalized current (TREK-2 WT + 1 mM TPenA, Voltage 0.150) was 0.939, the Normalized current (TREK-2 WT + 1 mM TPenA, Voltage -0.005) was 0.135 and the Normalized current (TREK-2 WT + 1 mM TPenA, Voltage -0.010) was 0.126. The Normalized current (TREK-2 WT + 1 mM TPenA, Voltage -0.015) was 0.111, the Normalized current (TREK-2 WT + 1 mM TPenA, Voltage -0.020) was 0.109 and the Normalized current (TREK-2 WT + 1 mM TPenA, Voltage -0.025) was 0.110. It also gave a Normalized current (TREK-2 WT + 1 mM TPenA, Voltage -0.030) of 0.103, a Normalized current (TREK-2 WT + 1 mM TPenA, Voltage -0.035) of 0.102 and a Normalized current (TREK-2 WT + 1 mM TPenA, Voltage -0.040) of 0.096. For the same compound, the Normalized current (TREK-2 WT + 1 mM TPenA, Voltage -0.045) was 0.095, the Normalized current (TREK-2 WT + 1 mM TPenA, Voltage -0.050) was 0.089 and the Normalized current (TREK-2 WT + 1 mM TPenA, Voltage -0.055) was 0.092. It also gave a Normalized current (TREK-2 WT + 1 mM TPenA, Voltage -0.060) of 0.088, a Normalized current (TREK-2 WT + 1 mM TPenA, Voltage -0.065) of 0.090 and a Normalized current (TREK-2 WT + 1 mM TPenA, Voltage -0.070) of 0.088. It also gave a Normalized current (TREK-2 WT + 1 mM TPenA, Voltage -0.075) of 0.085, a Normalized current (TREK-2 WT + 1 mM TPenA, Voltage -0.080) of 0.084 and a Normalized current (TREK-2 WT + 1 mM TPenA, Voltage -0.085) of 0.087. It also gave a Normalized current (TREK-2 WT + 1 mM TPenA, Voltage -0.090) of 0.084 and a Normalized current (TREK-2 WT + 1 mM TPenA, Voltage -0.095) of 0.081.

Reference: article PMC11364775, “Ion occupancy of the selectivity filter controls opening of a cytoplasmic gate in the K2P channel TALK-2” (Nature Communications, 2024)
